This is an account of results in patent US9920073B2, “Compositions useful for inhibiting HIV-1 infection and methods using same” (Drexel University, priority 2013, dated 2018).

For one data set, the system named is HIV-1JR-CSF. Nature of the data set: microbe, parasite or virus in culture. Format: cell-based. The note with it: Human immunodeficiency virus 1, read-out: IC50 JR-CSF.
The next data set concerns HIV-1HxBc2. The experiment in a line: microbe, parasite or virus in culture. The format is cell-based.
For data set [1], the system named is HIV-1 92UG037 (subtype A). The experiment in a line: HIV-1 replication assay in primary human PBMCs, isolate 92UG037. The format is cell-based.
Data set [2] relates to HIV-1 91US004 (subtype B). Nature of the data set: HIV-1 replication assay in primary human PBMCs, isolate 91US004. The format is cell-based.
The subject of data set [3] is HIV-1 98US_MSC5016 (subtype C). The experiment in a line: HIV-1 replication assay in primary human PBMCs, isolate 98US_MSC5016. Format: cell-based.
The subject of data set [4] is HIV-1 99UG_A07412M1 (subtype D). The experiment in a line: HIV-1 replication assay in primary human PBMCs, isolate 99UG_A07412M1. The format is cell-based.
The next data set deals with HIV-2 CDC310319. The experiment in a line: Replication assay in primary human PBMCs, HIV-2 isolate. The format is cell-based.
A further data set is described as follows: in vitro. The format is cell-based. The note with it: human. The method, then: Moreover, this assay was performed using healthy, primary cells to gain further insight into potential toxicities of the compound towards natural target cells. Additionally, as a key issue in the development of novel HIV drugs is their ability to inhibit the replication of genetically diverse isolates (especially isolates from the most globally prevalent subtypes A, B, C, and D), it was chosen to assess the potency of SC26 to inhibit the replication of isolates from subtypes A, B, C, and D in primary human peripheral blood mononuclear cells (PBMCs). Concomitantly, toxicity of SC26 to the PBMCs was assessed using an MTT assay. As can be observed from the IC50 values, the potency of SC26 against different isolates ranges quite dramatically, most likely reflecting differences in the binding site between subtypes.

The test system of data set [5] is HIV-1 94US_3393IN (subtype B). The experiment in a line: HIV-1 replication assay in primary human PBMCs, isolate 94US_3393IN.
Setting [6] is: Human immunodeficiency virus 1, PBMC, human PBMCs.

SMILES strings stand for the structures. Read-outs that look alike come from different tables or passages of the source. Bounds are passed on as bounds.

Take `COc1cnc(-n2cnc(C)n2)c2[nH]cc(C(=O)C(=O)N3CC4CN(C(=O)C5=CCCCC5)CC4C3)c12` (stereo not drawn) [SC26, 1-(5-(cyclohex-1-ene-1-carbonyl)hexahydropyrrolo[3,4-c]pyrrol-2(1H)-yl)-2-(4-methoxy-7-(3-methyl-1H-1,2,4-triazol-1-yl)-1H-pyrrolo[2,3-c]pyridin-3-yl)ethane-1,2-dione]: the IC50 (in general, the point on the concentration scale where inhibition reaches its midpoint) in the data set on HIV-1JR-CSF came to 2 ± 0.1 nM; in the data set with HIV-1HxBc2 (Human immunodeficiency virus 1), 0.6 ± 0.01 nM; in the data set on HIV-1HxBc2 (Human immunodeficiency virus 1, read-out: IC50 HxBc2), 0.6 ± 0.08 nM; in [1] (setting [6]), 25200 ± 6900 nM; in [2] (setting [6]), 195 ± 12 nM; in [3] (setting [6]), 3900 ± 800 nM. Further, the IC50 in [4] (setting [6]) is 490 ± 60 nM; in the data set on HIV-2 CDC310319 (Human immunodeficiency virus 2, PBMC, HIV-2 CDC310319, human PBMCs), above 100000 nM. The “Antiviral index (TC50/IC50)” value is listed as above 3.97 in data set [1]; above 513 in [2]; above 25.6 in data set [3]; above 204 in [4]; >166,666 in data set [5]. Besides, in the data set with HIV-2 CDC310319 (human PBMCs, in words), the “effect on the replication of an HIV-2 isolate” value is listed as “no effect”. Moreover, the CC50 (in general, the concentration at which the toxic effect on the cells reaches its halfway point) at 7 days in the data set “in vitro” is above 100000 nM.
